Experimental data published in PubChem BioAssay (NCI).
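1) Cells in 96-well plates. 2) Compound, 48 h, 5 concentrations. 3) Linear interpolation between surrounding doses. 4) Unreached endpoint = highest concentration. Abbreviation: GI50, concentration required for 50% inhibition of growth. The concentration for full growth arrest is given as TGI.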

Assays:
Assay in all cases: inhibition of tumour cell growth, NCI panel, 48 h
[1] = test system: A549 NSCLC
[2] = test system: SF-268 CNS
[3] = test system: SK-MEL-28 melanoma
[4] = test system: HOP-62 NSCLC
[5] = test system: UO-31 renal
[6] = test system: RPMI-8226 leukemia
[7] = test system: EKVX NSCLC
[8] = test system: MOLT-4 leukemia
[9] = test system: NCI/ADR-RES ovarian
[10] = test system: MALME-3M melanoma

Work on `S=c1ssc(N2CCOCC2)c1Cl` yielded a GI50 [1] greater than 100 µM, a TGI [1] greater than 100 µM and a GI50 [2] of 23.3 µM. It also gave a TGI [2] of 71 µM, a GI50 [3] of 38.2 µM and a TGI [3] of 57.9 µM. It also gave a GI50 [4] greater than 100 µM, a TGI [4] greater than 100 µM and a GI50 [5] greater than 100 µM. For the same compound, the TGI [5] was greater than 100 µM, the GI50 [6] was 23.3 µM and the TGI [6] was 69.2 µM. It also gave a GI50 [7] of 58 µM, a TGI [7] greater than 100 µM and a GI50 [8] of 31.8 µM. The TGI [8] was greater than 100 µM, the GI50 [9] was 43.9 µM and the TGI [9] was greater than 100 µM.

In the case of `CC1=CC(C)(C)N=C2SC(c3ccc(N)cc3)=NN12`, the TGI [1] is reported as greater than 100 µM, the TGI [10] is reported as greater than 100 µM and the TGI [2] is reported as greater than 100 µM. The TGI [3] was greater than 100 µM, the TGI [4] was greater than 100 µM and the TGI [5] was greater than 100 µM. It also gave a TGI [6] greater than 66.3 µM, a TGI [7] greater than 100 µM and a TGI [8] greater than 100 µM.

Compound `O=C(O)CNS(=O)(=O)c1ccc(NC(=O)c2ccc([N+](=O)[O-])cc2)cc1` has a TGI [1] greater than 100 µM, a TGI [10] greater than 100 µM and a TGI [2] greater than 100 µM. The TGI [3] was greater than 100 µM, the TGI [5] was greater than 100 µM and the TGI [6] was greater than 100 µM. For the same compound, the TGI [7] was greater than 100 µM and the TGI [8] was greater than 100 µM.

Work on `COc1ccc(CN2CC(C)(C)C2=O)c(OC)c1` yielded a TGI [1] greater than 100 µM, a TGI [10] greater than 100 µM and a TGI [2] greater than 100 µM. The TGI [3] was greater than 100 µM, the TGI [4] was greater than 100 µM and the TGI [5] was greater than 100 µM. For the same compound, the TGI [6] was greater than 100 µM, the TGI [7] was greater than 100 µM and the TGI [8] was greater than 100 µM.

`O=C(CC(=O)n1nc(-c2ccccc2)c(N=Nc2ccc(Cl)cc2)c1-c1ccccc1)Nc1ccc(Cl)cc1` gave a TGI [1] greater than 60.6 µM, a TGI [10] greater than 100 µM and a TGI [2] greater than 100 µM. The TGI [3] was greater than 100 µM, the TGI [4] was greater than 100 µM and the TGI [5] was greater than 100 µM. The TGI [6] was greater than 64.6 µM, the TGI [7] was greater than 100 µM and the TGI [8] was greater than 100 µM.

In the case of `O=C1c2cccnc2-c2nc(-c3ccc(Cl)cc3)cc3c2c1nc1ccccc13`, the GI50 [1] is reported as 35.6 µM, the TGI [1] is reported as greater than 100 µM and the GI50 [10] is reported as 20.2 µM. For the same compound, the TGI [10] was 91.5 µM, the GI50 [2] was 71.2 µM and the TGI [2] was greater than 100 µM. It also gave a GI50 [3] of 34.7 µM, a TGI [3] greater than 100 µM and a GI50 [5] of 46.9 µM. The TGI [5] was greater than 100 µM, the GI50 [6] was 56.5 µM and the TGI [6] was greater than 100 µM. The GI50 [7] was greater than 100 µM, the TGI [7] was greater than 100 µM and the GI50 [8] was 51.7 µM. For the same compound, the TGI [8] was greater than 100 µM, the GI50 [9] was 55.2 µM and the TGI [9] was greater than 100 µM.

Compound `[N-]=[N+]=C1C(=O)NN=C1c1ccccc1` has a TGI [1] greater than 100 µM, a TGI [10] greater than 100 µM and a TGI [2] greater than 100 µM. It also gave a TGI [3] greater than 100 µM, a TGI [6] greater than 100 µM and a TGI [7] greater than 100 µM. For the same compound, the TGI [8] was greater than 100 µM.

For `Cc1cc(NC(=S)SCc2ccc(F)cc2)c([N+](=O)[O-])cc1C`, the TGI [1] was greater than 100 µM, the TGI [10] was 77.7 µM and the TGI [2] was greater than 100 µM. For the same compound, the TGI [3] was greater than 100 µM, the TGI [4] was 68.1 µM and the TGI [7] was 91.3 µM. It also gave a TGI [8] of 16.9 µM and a TGI [9] of 62.2 µM.

`COC(=O)C(Cc1nc2ccccc2[nH]c1=O)C(NO)C(=O)Nc1c(Cl)cc([N+](=O)[O-])cc1Cl` (configuration not stated) was tested, and the TGI [1] was greater than 100 µM, the TGI [10] was greater than 100 µM and the TGI [2] was greater than 100 µM. The TGI [3] was greater than 100 µM, the TGI [4] was greater than 100 µM and the TGI [5] was greater than 100 µM. The TGI [6] was greater than 100 µM, the TGI [7] was greater than 100 µM and the TGI [8] was 67 µM.

`Nc1ccccc1/C(O)=C1/CCOC1=O` was tested, and the TGI [1] was greater than 100 µM, the TGI [10] was greater than 100 µM and the TGI [2] was greater than 100 µM. It also gave a TGI [3] greater than 100 µM, a TGI [4] greater than 100 µM and a TGI [5] greater than 100 µM. For the same compound, the TGI [6] was greater than 100 µM, the TGI [7] was greater than 100 µM and the TGI [8] was greater than 100 µM.

For `CCOC(=O)/C(C)=C(/O)C(=O)OCC`, the TGI [1] was greater than 100 µM, the TGI [10] was greater than 100 µM and the TGI [2] was greater than 100 µM. The TGI [3] was greater than 100 µM, the TGI [4] was greater than 100 µM and the TGI [5] was greater than 100 µM. For the same compound, the TGI [6] was greater than 100 µM, the TGI [7] was greater than 100 µM and the TGI [8] was greater than 100 µM.

`COc1c(C(=O)/C=C/c2ccccc2)c(O)cc2occc12` was tested, and the GI50 [1] was 8.62 µM, the TGI [1] was 29 µM and the GI50 [2] was 4.05 µM. For the same compound, the TGI [2] was 13.7 µM, the GI50 [3] was 7.03 µM and the TGI [3] was 20.7 µM. It also gave a GI50 [4] of 11.3 µM, a TGI [4] of 25.2 µM and a GI50 [5] of 3.14 µM. The TGI [5] was 11.8 µM, the GI50 [6] was 3.15 µM and the TGI [6] was 9.42 µM. The GI50 [7] was 12.5 µM, the TGI [7] was 25.6 µM and the GI50 [8] was 3.36 µM. For the same compound, the TGI [8] was greater than 100 µM, the GI50 [9] was 2.42 µM and the TGI [9] was 6.32 µM.

For `Cn1cc(C2(C)CC(C)(C)c3c2n(C)c2ccccc32)c2ccccc21` (configuration not stated), the TGI [1] was greater than 100 µM, the TGI [10] was greater than 100 µM and the TGI [2] was greater than 100 µM. It also gave a TGI [3] greater than 100 µM, a TGI [4] greater than 100 µM and a TGI [5] greater than 100 µM. It also gave a TGI [6] greater than 100 µM, a TGI [7] greater than 100 µM and a TGI [8] greater than 100 µM.

For `O=S(=O)(c1ccc(NC(=S)NC23CC4CC(CC(C4)C2)C3)cc1)N1CCCCC1`, the GI50 [1] was 3.07 µM, the TGI [1] was greater than 100 µM and the GI50 [10] was 2.76 µM. It also gave a TGI [10] of 8.3 µM, a GI50 [2] of 4.12 µM and a TGI [2] greater than 100 µM. It also gave a GI50 [3] of 5.23 µM, a TGI [3] greater than 100 µM and a GI50 [4] of 3.67 µM. It also gave a TGI [4] greater than 100 µM, a GI50 [5] of 2.82 µM and a TGI [5] greater than 100 µM. For the same compound, the GI50 [6] was 2.15 µM, the TGI [6] was 5.86 µM and the GI50 [8] was 3.24 µM. It also gave a TGI [8] of 11.4 µM, a GI50 [9] of 3.46 µM and a TGI [9] greater than 100 µM.

`c1cnn(CN(Cn2cccn2)Cn2cccn2)c1` was tested, and the TGI [1] was greater than 100 µM, the TGI [2] was greater than 100 µM and the TGI [3] was greater than 100 µM. For the same compound, the TGI [4] was greater than 100 µM, the TGI [5] was greater than 100 µM and the TGI [6] was greater than 100 µM. The TGI [7] was greater than 100 µM and the TGI [8] was greater than 100 µM.

Work on `O=C(CCc1nc(=S)[nH][nH]1)Nc1ccccc1Cl` yielded a TGI [1] greater than 100 µM, a TGI [10] greater than 100 µM and a TGI [2] greater than 100 µM. For the same compound, the TGI [3] was greater than 100 µM, the TGI [4] was greater than 100 µM and the TGI [5] was greater than 100 µM. It also gave a TGI [6] greater than 100 µM, a TGI [7] greater than 100 µM and a TGI [8] greater than 100 µM.

In the case of `Clc1cc(Cl)c2ns[s+]c2c1Cl`, the TGI [1] is reported as greater than 100 µM, the TGI [10] is reported as greater than 100 µM and the TGI [2] is reported as greater than 100 µM. For the same compound, the TGI [3] was greater than 100 µM, the TGI [4] was greater than 100 µM and the TGI [5] was greater than 100 µM. It also gave a TGI [7] greater than 100 µM and a TGI [8] greater than 100 µM.

With `CCOC(=O)N[C@@H]1C(CC(=O)OC)O[C@H]2OC(C)(C)O[C@H]21` (some centres not stated) the TGI [1] was greater than 100 µM, the TGI [10] was greater than 100 µM and the TGI [2] was greater than 100 µM. For the same compound, the TGI [3] was greater than 100 µM, the TGI [4] was greater than 100 µM and the TGI [5] was greater than 100 µM. For the same compound, the TGI [6] was greater than 100 µM and the TGI [8] was greater than 100 µM.

`O=C(Nc1ccccc1-c1nc2ccccc2[nH]c1=O)c1ccccc1` gave a TGI [1] of 69.9 µM, a TGI [10] of 92.7 µM and a TGI [2] of 64.8 µM. It also gave a TGI [3] greater than 100 µM, a TGI [4] of 35.9 µM and a TGI [5] of 38.3 µM. For the same compound, the TGI [6] was 44.9 µM, the TGI [7] was 70.3 µM and the TGI [8] was greater than 100 µM.

Work on `O=C(c1cccc2ccccc12)N1CCC(C2CCN(C(=O)c3cccc4ccccc34)CC2)CC1` yielded a TGI [1] greater than 100 µM, a TGI [10] greater than 100 µM and a TGI [2] greater than 100 µM. It also gave a TGI [3] greater than 100 µM, a TGI [4] greater than 100 µM and a TGI [5] greater than 100 µM. The TGI [6] was greater than 100 µM, the TGI [7] was greater than 100 µM and the TGI [8] was greater than 100 µM.

`Cc1cc(NS(=O)(=O)c2ccc(Nc3c4ccccc4nc4c(C(=O)N5CCN(CCO)CC5)cccc34)cc2)no1` was tested, and the TGI [1] was greater than 100 µM, the TGI [10] was greater than 100 µM and the TGI [2] was greater than 100 µM. The TGI [3] was greater than 100 µM, the TGI [4] was greater than 100 µM and the TGI [5] was greater than 100 µM. The TGI [7] was greater than 100 µM and the TGI [8] was greater than 100 µM.
